This note sets out measurements from US20120046292A1, “[…] COMPOUND” (ASTELLAS PHARMA INC., priority 2009, published 2012).

For one test, the target named is T1, human DGAT1 (hDGAT1) (Homo sapiens, UniProt O75907).
T1 construct: made in house; host or cells: Sf9 insect cells (Bac-to-Bac baculovirus, pFastBac1); microsomal fraction
T1 sequence (O75907 1-488): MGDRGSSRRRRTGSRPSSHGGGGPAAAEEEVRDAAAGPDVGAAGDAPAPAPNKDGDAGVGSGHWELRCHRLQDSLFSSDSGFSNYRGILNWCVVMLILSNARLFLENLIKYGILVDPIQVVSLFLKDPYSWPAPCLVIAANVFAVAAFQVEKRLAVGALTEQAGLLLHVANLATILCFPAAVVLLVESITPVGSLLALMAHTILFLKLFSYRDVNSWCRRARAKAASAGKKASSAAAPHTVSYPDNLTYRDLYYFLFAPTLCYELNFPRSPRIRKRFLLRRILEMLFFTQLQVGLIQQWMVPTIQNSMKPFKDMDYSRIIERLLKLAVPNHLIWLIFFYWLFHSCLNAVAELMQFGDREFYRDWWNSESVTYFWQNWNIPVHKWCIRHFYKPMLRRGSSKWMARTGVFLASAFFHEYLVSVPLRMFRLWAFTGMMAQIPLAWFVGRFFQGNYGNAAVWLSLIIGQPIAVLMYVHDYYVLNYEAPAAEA
As to the kind of experiment: DGAT1 inhibitory activity test (hDGAT1-expressing Sf9 cell microsome, [14C]oleoyl-CoA, FlashPlate). To be noted: test substance 1, 10, 100, 1000 nM, linear regression. It counts as biochemical. The procedure:
(1) Production of Bacmid-hDGAT1
A base sequence encoding a human DGAT1 (hDGAT1) (1467 bases of CDS in Genbank Accession No. NM_012079) was cloned and ligated to pFastBac™1 (Invitrogen) to produce a pFastBac1-hDGAT1. From this plasmid, an engineered baculovirus liquid (Bacmid-hDGAT1) was prepared using a Bac-to-Bac (registered trademark) Baculovirus Expression System (Invitrogen).
(2) Preparation of Sf9 Cell-Derived DGAT1-Expressing Microsomal Fraction
Sf9 cells were seeded into a 225-cm^2 Flask Angled Neck (CORNING) to a confluency of 80%, and statically cultured in an incubator at 27° C. using an EX-CELL™ 420 INSECT SERUM-FREE MEDIUM (SAFC Biosciences, Inc.). After 24 hours, the culture medium was taken out, and a liquid obtained by diluting 1.67 mL of an engineered baculovirus medium (Bacmid-hDGAT1) with 3.33 mL of an EX-CELL™ 420 INSECT SERUM-FREE MEDIUM was added thereto, and the resultant was cultured under shaking in an incubator at 27° C. for 1 hour. Thereafter, 25 mL of an EX-CELL™ 420 INSECT SERUM-FREE MEDIUM was added thereto, followed by culturing in an incubator at 27° C. for 72 hours. The infected cells were harvested, diluted with 1.5 mL of a buffer A (40 mM phosphate buffer (pH 7.2) including 100 mM sucrose and 50 mM KCl) containing a Complete Protease Inhibitor Cocktail (Roche Diagnostics K. K.), and then subjected to sonication using a SONIFER 250 (BRANSON Ultrasonic Corp.). This suspension was centrifuged at 10000×g for 5 minutes and the supernatant was recovered. This supernatant was centrifuged at 100000×g for 60 minutes and the resulting precipitate was dissolved in 600 μL of a buffer A and then subjected to sonication again, to prepare a suspension. This suspension was taken as a hDGAT1-expressing Sf9 cell microsome.
(3) DGAT1 Activity Measurement
For the DGAT1 activity, a test substance in DMSO (final DMSO concentration 2%) in which 100 mM Tris-HCl (pH 8.0), 2 mM MgCl2, 0.01% BSA, a hDGAT1-expressing Sf9 cell microsome, 200 μM dioleoyl glycerol or dipalmitoyl glycerol, 8.9 μM [^14C] oleoyl-CoA, and 1.68% acetone were added to a phospholipid FlashPlate (PerkinElmer Life Science). The reaction was carried out at 30° C. for 60 minutes, and then twice the amount (100 μL), relative to the reaction liquid, of a mixture of isopropyl alcohol:0.1 M carbonate buffer (pH 9.0) at a ratio of 1:1 was added thereto to stop the reaction. The next day, the count was measured with a TopCount microplate scintillation counter (PerkinElmer Life Science).
The count without addition of the test substance was taken as a control (TG with addition of DMSO). The count without addition of the test substance and the microsome was taken as a Blank TG. The DGAT1 inhibitory rate of the test substance was calculated by the following calculation equation:
Inhibitory Rate (%)=(TG with addition of test substance−Blank TG)÷(TG with addition of DMSO−Blank TG)×100
The DGAT1 inhibitory rates were calculated when the concentrations of the test substance in the reaction liquid were 1, 10, 100, and 1000 nM. Linear regression was performed using the inhibitory rates obtained, and a test substance concentration (IC50) required to inhibit the DGAT1 activity by 50% was calculated by an SAS 8.2 software package (SAS Institute Japan, Ltd., Tokyo, Japan).

Another test deals with male C57BL/6J mice. Nature of the test: Inhibitory action on increase in triglyceride (TG) by fat administration. The class given is in vivo. The settings on record: administration amount 0.3 mg/kg; fat (intralipid 20%, 10 mL/kg) orally 20 hours after dosing; plasma TG 2 hours after fat; control 0.5% methyl cellulose group. How it is done:
8- to 15-week male C57BL/6J mice were fasted for four hours, and the test substances were administered to the mice. The test substance was administered after suspending it in a 0.5% methyl cellulose solution. After 20 hours, fat (intralipid 20%, Terumo (Fresenius), 10 mL/kg) was orally administered thereto. Immediately before and after 2 hours from administration of the fat, blood was collected from the tail vein to obtain plasma. For measurement of the TG in plasma, a TG increase in the plasma by fat administration was calculated using a Triglyceride E Test Wako (Wako Pure Chemical Industries Ltd.). Using the TG increase in the plasma in a group to which 0.5% methyl cellulose had been administered as a control, the TG increase inhibitory rate when the test substance had been administered was determined.

Another test deals with DIO mice. Nature of the test: Anti-obesity action in DIO mice. It counts as in vivo. To be noted: oral, once per day, administration period 2 weeks, 1 mg/kg; high-fat diet C57BL/6J mice; solvent group weight increase = 100%. How it is done:
High-fat diet formula (Research Diet D12492, 60 kcal % fat) were given to 9-week male C57BL/6J mice. For acclimatization of the mice, the solvent used in the test from the 4th week was administered thereto. From the 5th week, the test substance was orally administered once or twice daily. The test substance was administered after suspending it in a 0.5% methyl cellulose solution. Administration was performed repeatedly for 2 or 4 weeks, and variation in the weights due to the test substance administration was observed. By taking the increase in the weight in the group to which the solvent had been administered within a test period as 100%, the weight increase inhibitory rate of the test substance was calculated.

For the compound `O=C(NCCNC(=O)c1sc2ccccc2c1Cl)c1ccc(O[C@H]2CC[C@@H](C(=O)O)CC2)cc1` [Example 469], 1.7 nM corresponded to half-maximal inhibition against human DGAT1 (hDGAT1) (IC50). The “TG increase inhibitory rate” value with male C57BL/6J mice is 109%.
Regarding `O=C(NCCNC(=O)c1cc2cc(OC(F)(F)F)ccc2[nH]1)c1ccc(O[C@H]2CC[C@@H](C(=O)O)CC2)cc1` [Example 148], the half-inhibitory concentration (IC50) on human DGAT1 (hDGAT1) worked out at 4.2 nM.
On the same count and under the same terms, with `O=C(O)C[C@H]1CC[C@@H](Oc2cc(F)c(C(=O)NCCNC(=O)c3ccc4ccccc4c3)cc2F)CC1` [Example 571] the figure was 1.6 nM.
Still for that read-out and setting: the figure for `CCOc1ccc(C(=O)NCCNC(=O)c2ccc(O[C@H]3CC[C@@H](C(=O)O)CC3)nc2)cc1Cl` [Example 245] is 14 nM.
`O=C(NCCNC(=O)c1cc(F)c(O[C@H]2CC[C@@H](C(=O)O)CC2)cc1F)c1ccc2ccccc2c1` [Example 454] had an IC50 at human DGAT1 (hDGAT1) of 1 nM. Further, the “TG increase inhibitory rate” value in the test with male C57BL/6J mice was determined as 106%. Further, the “weight increase inhibitory rate” value in the test with DIO mice is reported as 93%.
On human DGAT1 (hDGAT1), `O=C(NCCNC(=O)c1c(F)cc(O[C@H]2CC[C@@H](C(=O)O)CC2)cc1F)c1ccc2ccccc2c1` [Example 299] showed an IC50 of 6.7 nM.
On the same count and under the same terms, with `O=C(NCCNC(=O)c1ccc2ccccc2c1)c1ccc(O[C@H]2CC[C@@H](C(=O)O)CC2)cc1` [Example 83] the figure was 5.2 nM; with `O=C(O)CC1CCC(c2ccc(C(=O)NCCNC(=O)c3ccc(Cl)cc3)cc2)CC1` (stereo not drawn) [Example 6, {4-[4-({2-[(4-chlorobenzoyl)amino]ethyl}carbamoyl)phenyl]cyclohexyl}acetic acid], 20 nM.
Compound `Cc1cc(C(=O)NCCNC(=O)c2ccc(O[C@H]3CC[C@@H](C(=O)O)CC3)cc2)ccc1Cl` [Example 106] returned an IC50 at human DGAT1 (hDGAT1) of 5.3 nM.
As to `O=C(NCCNC(=O)c1ccc(O[C@H]2CC[C@@H](C(=O)O)CC2)cc1F)c1ccc2ccccc2c1` [Example 169], half-maximal inhibition at human DGAT1 (hDGAT1) (IC50) required 2.7 nM. In addition, the “TG increase inhibitory rate” value in the test on male C57BL/6J mice amounted to 75%.
The compound `O=C(NCCNC(=O)c1ccc(O[C@H]2CC[C@@H](C(=O)O)CC2)cc1)Nc1ccccc1Cl` [Example 56] had an IC50 against human DGAT1 (hDGAT1) of 14 nM.
Turning to `CCCCCC12CCC(C(=O)NCCNC(=O)c3ccc(O[C@H]4CC[C@@H](C(=O)O)CC4)cc3)(CC1)CC2` [Example 20], the IC50 at human DGAT1 (hDGAT1) is 2.1 nM.
The same measure, in the same setting: the figure for `Cc1cc(O[C@H]2CC[C@@H](C(=O)O)CC2)ccc1C(=O)NCCNC(=O)c1ccc(C(F)(F)F)cc1` [Example 187] is 8.1 nM.
As to `O=C(NCCNC(=O)c1ccc(C2CC2)cc1)c1ccc(O[C@H]2CC[C@@H](C(=O)O)CC2)cc1` [Example 79], on human DGAT1 (hDGAT1), the half-inhibitory concentration (IC50) amounted to 2.3 nM. Moreover, in the test on male C57BL/6J mice, the “TG increase inhibitory rate” value was determined as 79%.
In the case of `O=C(NCCNC(=O)c1ccc(F)c(C(F)(F)F)c1)c1ccc(O[C@H]2CC[C@@H](C(=O)O)CC2)cc1` [Example 82], the IC50 against human DGAT1 (hDGAT1) was determined as 9.9 nM.
The same measure, in the same setting: the figure for `O=C(O)CC1CCN(c2c(F)cc(C(=O)NCCNC(=O)c3sc4ccccc4c3Cl)cc2F)CC1` [Example 604] is 32 nM; for `O=C(NCCNC(=O)c1ccc(O[C@H]2CC[C@@H](C(=O)O)CC2)cc1F)c1cc2cc(F)ccc2s1` [Example 531] it is 0.1 nM; for `CCOc1ccc(C(=O)NCCNC(=O)c2ccc(O[C@H]3CC[C@@H](C(=O)O)CC3)cc2)cc1` [Example 18] it is 21 nM.
On the same count and under the same terms, with `O=C(NCCNC(=O)c1ccc(O[C@H]2CC[C@@H](C(=O)O)CC2)c(F)c1F)c1ccc2ccccc2c1` [Example 300] the figure was 5.6 nM.
On the same count and under the same terms, with `O=C(NCCNC(=O)N1CCC(c2ccc(Cl)cc2)CC1)c1ccc(O[C@H]2CC[C@@H](C(=O)O)CC2)c(F)c1F` [Example 480] the figure was 5.2 nM.
The compound `O=C(NCCNC(=O)c1ccc(O[C@H]2CC[C@@H](C(=O)O)CC2)c(F)c1F)c1ccc(Cl)s1` [Example 490] had an IC50 against human DGAT1 (hDGAT1) of 3.8 nM. In the test with male C57BL/6J mice, the “TG increase inhibitory rate” value is 92%. Further, the “weight increase inhibitory rate” value with DIO mice amounted to 98%.
For `O=C(NCCNC(=O)c1ccc(O[C@H]2CC[C@@H](C(=O)O)CC2)cc1)c1ccc(Oc2ccc(F)cc2)cc1` [Example 63], on human DGAT1 (hDGAT1), it took 0.4 nM to reach half-maximal inhibition (IC50).
On the same count and under the same terms, with `O=C(NCCNC(=O)c1ccc(C2CC2)c(Cl)c1)c1ccc(O[C@H]2CC[C@@H](C(=O)O)CC2)c(F)c1` [Example 135] the figure was 5.8 nM.

Broadly, the IC50 is the concentration needed to halve the response being measured. Lower therefore signals greater potency.
